Laboratory results published in patent publication US20130289014A1, “Combination therapy in treatment of oncological and fibrotic diseases” (BOEHRINGER INGELHEIM INTERNATIONAL GMBH, priority 2010, published 2013).

Legend:
[1] = tested on: Calu-6 xenografts (human NSCLC tumor cell line); test: Calu-6 NSCLC subcutaneous xenograft, single agents and combination; assay type: in vivo, mice; conditions: Calu-6, d40; large tumors, ca. 350 mm^3 at start of treatment
Description: In order to analyse the anti-tumor effects of combining the inhibition of tumor angiogenesis by interfering with the VEGFR signalling cascade with the antitumor activity of inhibiting Aurora kinase B, the following in vivo experiment is performed. Nude mice carrying established subcutaneous Calu-6 xenografts (human NSCLC tumor cell line) are randomized and treated with either the Aurora B kinase inhibitor of this invention Compound X or BIBF 1120 alone or with the combination of both drugs. After termination of treatment the tumors on the control treated mice (black line with circles in FIG. 1) are in average about 1100 mm^3 in volume.
FIG. 1: Calu-6 NSCLC model, combination BIBF 1120+Compound X, schedule (cf. Drawings; control group: line with circles; BIBF 1120 treated group: line with rhombs; Compound X (AKI) treated group: line with triangles; Combo BIBF 1120+Compound X (AKI) treated group: line with squares).

NCI-H460 cells [2] = test: Cell cycle status by DNA content analysis (polyploidy); assay type: cell-based, human; conditions: NCI-H460, within 48 h of treatment; increased from <5%
Description: (§1) Compound X was profiled in enzymatic kinase assays as well as in proliferation assays on various human cancer cell lines. Cell cycle status was assessed by DNA content analysis (Cellomics ArrayScan, FACScalibur). Histone H3 phosphorylation was determined by immunofluorescence (Cellomics ArrayScan). Apoptosis was detected by Western blotting for cleaved PARP and microscopic enumeration of DAPI-stained cells showing nuclear fragmentation. Senescent cells were identified by staining for SA-β-Gal activity.

human Aurora B kinase = human Aurora B kinase (Homo sapiens, UniProt Q96GD4); test: Enzymatic kinase assay, Aurora B; assay type: biochemical
Chain of human Aurora B kinase (Q96GD4 whole entry): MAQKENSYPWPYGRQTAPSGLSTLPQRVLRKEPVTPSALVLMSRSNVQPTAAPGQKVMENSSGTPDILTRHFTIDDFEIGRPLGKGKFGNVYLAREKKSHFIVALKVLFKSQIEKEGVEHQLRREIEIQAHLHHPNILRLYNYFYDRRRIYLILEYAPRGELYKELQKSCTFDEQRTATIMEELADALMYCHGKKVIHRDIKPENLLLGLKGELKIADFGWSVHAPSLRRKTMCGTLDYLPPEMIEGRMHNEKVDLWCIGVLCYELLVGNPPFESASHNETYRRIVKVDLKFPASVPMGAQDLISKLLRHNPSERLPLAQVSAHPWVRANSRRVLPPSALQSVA
Description: as §1

Aurora A kinase = target: T1, Aurora A kinase (Homo sapiens, UniProt O14965); test: Enzymatic kinase assay, Aurora A; assay type: biochemical
T1 sequence (O14965 1-403): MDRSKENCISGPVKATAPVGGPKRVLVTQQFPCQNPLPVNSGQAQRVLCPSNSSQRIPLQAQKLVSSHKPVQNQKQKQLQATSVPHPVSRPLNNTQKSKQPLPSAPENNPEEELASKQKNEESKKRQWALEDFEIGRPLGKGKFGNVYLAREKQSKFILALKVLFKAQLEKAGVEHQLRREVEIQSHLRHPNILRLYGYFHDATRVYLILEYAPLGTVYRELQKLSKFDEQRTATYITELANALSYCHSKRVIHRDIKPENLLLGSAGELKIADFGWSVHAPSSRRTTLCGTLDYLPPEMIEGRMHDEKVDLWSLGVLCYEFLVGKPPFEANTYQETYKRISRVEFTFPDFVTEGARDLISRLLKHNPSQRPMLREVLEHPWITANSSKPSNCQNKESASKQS
Description: as §1

[3] = tested on: BxPC-3 pancreas adenocarcinoma; test: BxPC-3 pancreas adenocarcinoma subcutaneous xenograft; assay type: in vivo, mice; conditions: for T/C: BxPC-3
Description: (§2) BomTac:NMRI-Foxn1^nu mice were grafted subcutaneously with NCI-H460 non-small cell lung carcinoma (mutant KRAS, wild-type p53), HCT 116 colon carcinoma (mutant KRAS, wild-type p53) or BxPC-3 pancreas adenocarcinoma cells (wild-type KRAS, mutant p53). Treatment was initiated when the tumors had reached a volume of ˜50 mm^3. BI 811283 was injected intravenously once or twice weekly as a single bolus or b.i.d. Alternatively, the compound was administered once-weekly by a continuous 24 h infusion via subcutaneously implanted osmotic mini-pumps. Multiple dose levels and dosing schedules were evaluated.

MV-4; 11 = test: AML cancer model MV-4;11; assay type: in vivo; conditions: MV-4;11 AML model
[4] = tested on: 46 additional kinases representative of the human kinome; test: Panel of 46 additional kinases; assay type: biochemical; conditions: Compound at 1000 nM
Description: as §1

Aurora C kinase = target: T2, Aurora C kinase (Homo sapiens, UniProt Q9UQB9); test: Enzymatic kinase assay, Aurora C; assay type: biochemical
T2 sequence (Q9UQB9 1-309): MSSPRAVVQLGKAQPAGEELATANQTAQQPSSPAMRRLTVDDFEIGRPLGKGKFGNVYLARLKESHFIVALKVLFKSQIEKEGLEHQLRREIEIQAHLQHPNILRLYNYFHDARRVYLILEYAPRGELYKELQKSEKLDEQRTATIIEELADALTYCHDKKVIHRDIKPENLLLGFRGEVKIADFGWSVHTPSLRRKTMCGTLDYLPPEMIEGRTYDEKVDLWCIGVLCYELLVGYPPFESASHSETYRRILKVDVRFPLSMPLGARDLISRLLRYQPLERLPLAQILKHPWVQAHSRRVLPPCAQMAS
Description: as §1

[5] = tested on: NCI-H460 non-small cell lung carcinoma; test: NCI-H460 non-small cell lung carcinoma subcutaneous xenograft; assay type: in vivo, mice; conditions: for T/C: NCI-H460
Description: as §2

THP-1 = test: AML cancer model THP-1; assay type: in vivo; conditions: THP-1 AML model
NCI-H460 cells [6] = test: Apoptosis: cleaved PARP Western blot and nuclear fragmentation of DAPI-stained cells; assay type: cell-based, human; conditions: NCI-H460, after 72 h and 96 h of treatment
Description: as §1

[7] = tested on: histone H3 phosphorylation in NCI-H460 cells; test: Histone H3 phosphorylation by immunofluorescence (Cellomics ArrayScan); assay type: cell-based, human
Description: as §1

HCT 116 colon carcinoma = HCT 116 colon carcinoma subcutaneous xenograft; assay type: in vivo, mice; conditions: for T/C: HCT 116
Description: as §2

human cancer cell lines = test: Proliferation assays on human cancer cell lines; assay type: cell-based; conditions: >20 human cancer cell lines; read-out: EC50 for inhibition of proliferation
Description: as §1

NCI-H460 cells [8] = test: Senescence by SA-β-Gal staining; assay type: cell-based, human; conditions: NCI-H460, within 96 h; from <3%
Description: as §1

[9] = 15 BID mg/kg, weekly dose 60 mg/kg, (qdx2)x6, i.v.

## COC(=O)c1ccc2c(c1)NC(=O)/C2=C(\Nc1ccc(N(C)C(=O)CN2CCN(C)CC2)cc1)c1ccccc1 [BIBF 1120, 3-Z-[1-(4-(N-((4-methyl-piperazin-1-yl)-methylcarbonyl)-N-methyl-amino)-anilino)-1-phenyl-methylene]-6-methoxycarbonyl-2-indolinone]
[1]
  median T/C value: 50%

## CC(C)NC(=O)[C@H]1CCC[C@H]1Nc1nc(Nc2ccc(C(=O)N(C)C3CCN(C)CC3)cc2)ncc1C(F)(F)F [Compound X]
NCI-H460 cells [2]
  fraction of polyploid cells: > 80%
Human Aurora B kinase
  IC50: 9 nM
Aurora A kinase
  IC50: 70 nM
[3]; 20 mg/kg, weekly dose 20 mg/kg, (q7d)x4, 24 h cont. inf.
  T/C: 6%
[3]; [9]
  T/C: 17%
[3]; pancreas carcinoma model, multiple cycles, total weekly doses of 20 to 75 mg/kg
  effect on tumor growth: dose-dependent inhibition of tumor growth or tumor regression
[1]
  median T/C value: 45%
MV-4; 11
  T/C value: 5%
[4]
  kinases inhibited by more than 50%: 7/46
Aurora C kinase
  IC50: 17 nM
[5]; 20 mg/kg, weekly dose 20 mg/kg, (q7d)x3, 24 h cont. inf.
  T/C: 8%
[5]; 15 BID mg/kg, weekly dose 60 mg/kg, (qdx2)x3, i.v.
  T/C: 27%
[5]; non-small cell lung cancer model, multiple cycles, total weekly doses of 20 to 75 mg/kg
  effect on tumor growth: dose-dependent inhibition of tumor growth or tumor regression
THP-1
  T/C value: 7%
NCI-H460 cells [6]
  cleaved poly (ADP-ribose) polymerase: An increase of cleaved poly (ADP-ribose) polymerase
NCI-H460 cells [6]; from <1%
  fraction of cells with nuclear fragmentation: 7%
[7]
  time to inhibition of histone H3 phosphorylation: < 1 h
HCT 116 colon carcinoma; HCT 116, large tumors (350 mm^3)
  effect on large tumors: regression of large tumors (350 mm^3) was induced
HCT 116 colon carcinoma; 20 mg/kg, weekly dose 20 mg/kg, (q7d)x5, 24 h cont. inf.
  T/C: 2%
HCT 116 colon carcinoma; 30 mg/kg, weekly dose 60 mg/kg, (qdx2)x6, i.v.
  T/C: 25%
HCT 116 colon carcinoma; [9]
  T/C: 4%
HCT 116 colon carcinoma; 37.5 BID mg/kg, weekly dose 75 mg/kg, (q7d)x6, i.v.
  T/C: 8%
HCT 116 colon carcinoma; HCT 116 tumors
  histological examination of tumors: accumulation of enlarged, multinucleated cells
HCT 116 colon carcinoma; HCT 116 tumors, therapeutic doses
  phosphorylation of histone H3 in tumors (biomarker analysis): inhibited phosphorylation of histone H3
HCT 116 colon carcinoma; colon carcinoma model, multiple cycles, total weekly doses of 20 to 75 mg/kg
  effect on tumor growth: dose-dependent inhibition of tumor growth or tumor regression
Human cancer cell lines
  EC50: 2 to 14 nM
NCI-H460 cells [8]
  senescent cells, fraction of the population: 25%
